{"source": "patent US8791163B2", "about": "(McGill University, priority 2006, dated 2014); as to MT1 Activity: key: A = agonist; PA = partial agonist; ANT = antagonist; IA = Inverse agonist; as to MT2 Activity: key: A = agonist; PA = partial agonist; ANT = antagonist; IA = Inverse agonist", "key": {"[1]": {"target": "T1, cloned human MT1 receptors (Homo sapiens, UniProt P48039)", "T1 construct": "expressed in transfected cells", "T1 sequence (P48039 whole entry)": "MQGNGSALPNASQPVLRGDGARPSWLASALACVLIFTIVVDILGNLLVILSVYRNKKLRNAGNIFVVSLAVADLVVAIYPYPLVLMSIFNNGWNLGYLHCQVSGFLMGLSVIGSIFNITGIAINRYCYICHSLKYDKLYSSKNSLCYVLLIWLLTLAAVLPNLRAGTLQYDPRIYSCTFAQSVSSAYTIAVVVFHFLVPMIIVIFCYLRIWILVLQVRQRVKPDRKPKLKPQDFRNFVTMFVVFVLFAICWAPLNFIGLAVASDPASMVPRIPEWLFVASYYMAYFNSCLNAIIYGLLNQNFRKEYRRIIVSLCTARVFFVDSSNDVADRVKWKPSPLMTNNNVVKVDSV", "test": "2-[125I]iodomelatonin competition binding, human MT1 in NIH3T3 cells", "settings": "calculated from IC50 by Cheng-Prusoff, mean of at least three determinations", "description": "(§1) Membranes were incubated for 90 min at 37° C. in binding buffer (Tris/HCl 50 mM, pH 7.4). The final membrane concentration was 5-10 μg of protein per tube. […] The pKi values are the mean of at least three independent determinations performed in duplicate. To define the functional activity of the compounds of Formula (I) at the MT1 and MT2 receptor subtypes, [^35S]GTPγS binding assays in NIH3T3 cells expressing human-cloned MT1 or MT2 receptors were performed. The amount of bound [^35S]GTPγS is proportional to the level of analogue-induced G-protein activation and is related to the intrinsic activity of the compound (i.e. a compound of Formula (I)) under study. […] Nonspecific binding was assessed using non-radiolabeled GTPγS (10 μM). […] Basal stimulation is the amount of [^35S]GTPγS specifically bound in the absence of the compounds of Formula (I) and was taken as 100%. […] All of the measurements were performed in triplicate."}, "[2]": {"target": "T2, cloned human MT2 receptors (Homo sapiens, UniProt P49286)", "T2 construct": "expressed in transfected cells", "T2 sequence (P49286 1-362)": "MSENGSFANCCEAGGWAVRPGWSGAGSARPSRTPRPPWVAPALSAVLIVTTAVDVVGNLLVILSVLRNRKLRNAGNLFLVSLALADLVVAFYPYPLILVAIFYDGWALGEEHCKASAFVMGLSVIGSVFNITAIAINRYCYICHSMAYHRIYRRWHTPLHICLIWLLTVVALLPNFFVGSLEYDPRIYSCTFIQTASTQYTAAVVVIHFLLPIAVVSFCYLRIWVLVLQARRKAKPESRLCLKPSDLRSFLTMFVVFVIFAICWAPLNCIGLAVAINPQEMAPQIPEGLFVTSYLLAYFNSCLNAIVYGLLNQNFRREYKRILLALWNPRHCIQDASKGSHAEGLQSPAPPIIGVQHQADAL", "test": "2-[125I]iodomelatonin competition binding, human MT2 in NIH3T3 cells", "settings": "human MT2 in NIH3T3 cells, calculated from IC50 by Cheng-Prusoff, mean of at least three determinations", "description": "as §1"}, "[3]": {"target": "T1, cloned human MT1 receptors", "test": "[35S]GTPγS binding assay, NIH3T3 cells expressing human MT1", "type": "biochemical", "settings": "for MT1 IAr ± SEM (relative intrinsic activity): maximal net effect relative to MLT", "description": "as §1"}, "[4]": {"target": "T2, cloned human MT2 receptors", "test": "[35S]GTPγS binding assay, NIH3T3 cells expressing human MT2", "type": "biochemical", "settings": "for MT2 IAr ± SEM (relative intrinsic activity): maximal net effect relative to MLT", "description": "as §1"}}, "data": [{"compound": "COc1cccc(N(CCNC(C)=O)c2cccc(OC)c2)c1", "note": "[5c, N-[2-(bis-3-methoxyphenylamino)ethyl]acetamide]", "values": [{"measurement": "MT1 pKi", "setting": "[1]", "result": "7.72 ± 0.13"}, {"measurement": "MT2 pKi", "setting": "[2]", "result": "10.56 ± 0.10"}, {"measurement": "MT1 IAr ± SEM (relative intrinsic activity)", "setting": "[3]", "result": "0.59 ± 0.05"}, {"measurement": "MT2 Activity", "setting": "[4]", "result": "ANT"}, {"measurement": "MT2 IAr ± SEM (relative intrinsic activity)", "setting": "[4]", "result": "0.15 ± 0.01"}]}, {"compound": "COc1ccc(N(CCNC(C)=O)c2cccc(OC)c2)cc1", "note": "[5d, N-{2-[(4-Methoxyphenyl)-3-methoxyphenylamino]ethyl}acetamide]", "values": [{"measurement": "MT1 pKi", "setting": "[1]", "result": "7.00 ± 0.01"}, {"measurement": "MT2 pKi", "setting": "[2]", "result": "9.06 ± 0.10"}, {"measurement": "MT1 Activity", "setting": "[3]", "result": "ANT"}, {"measurement": "MT1 IAr ± SEM (relative intrinsic activity)", "setting": "[3]", "result": "0.06 ± 0.03"}, {"measurement": "MT2 Activity", "setting": "[4]", "result": "ANT"}, {"measurement": "MT2 IAr ± SEM (relative intrinsic activity)", "setting": "[4]", "result": "0.03 ± 0.01"}]}, {"compound": "CC(=O)NCCN(c1ccccc1)c1cccc(Br)c1", "note": "[5f, N-{2-[(3-bromophenyl)-phenylamino]ethyl}acetamide]", "values": [{"measurement": "MT1 pKi", "setting": "[1]", "result": "7.77 ± 0.19"}, {"measurement": "MT2 pKi", "setting": "[2]", "result": "9.70 ± 0.43"}, {"measurement": "MT1 IAr ± SEM (relative intrinsic activity)", "setting": "[3]", "result": "0.43 ± 0.04"}, {"measurement": "MT2 IAr ± SEM (relative intrinsic activity)", "setting": "[4]", "result": "0.36 ± 0.01"}]}, {"compound": "COc1cccc(N(CCNC(C)=O)c2ccc3ccccc3c2)c1", "note": "[5g, N-{2-[(3-Methoxyphenyl)-β-naphthylamino]ethyl}acetamide]", "values": [{"measurement": "MT1 pKi", "setting": "[1]", "result": "6.88 ± 0.07"}, {"measurement": "MT2 pKi", "setting": "[2]", "result": "9.95 ± 0.64"}, {"measurement": "MT1 Activity", "setting": "[3]", "result": "ANT"}, {"measurement": "MT1 IAr ± SEM (relative intrinsic activity)", "setting": "[3]", "result": "0.17 ± 0.03"}, {"measurement": "MT2 IAr ± SEM (relative intrinsic activity)", "setting": "[4]", "result": "−0.20 ± 0.03"}]}, {"compound": "CC(=O)NCCN(c1ccccc1)c1cccc(OCCCCc2ccccc2)c1", "note": "[5i]", "values": [{"measurement": "MT1 pKi", "setting": "[1]", "result": "7.45 ± 0.01"}, {"measurement": "MT2 pKi", "setting": "[2]", "result": "6.48 ± 0.29"}, {"measurement": "MT1 Activity", "setting": "[3]", "result": "ANT"}, {"measurement": "MT1 IAr ± SEM (relative intrinsic activity)", "setting": "[3]", "result": "0.12 ± 0.02"}, {"measurement": "MT2 Activity", "setting": "[4]", "result": "ANT"}, {"measurement": "MT2 IAr ± SEM (relative intrinsic activity)", "setting": "[4]", "result": "0.01 ± 0.01"}]}, {"compound": "COc1cccc(N(CCNC(C)=O)Cc2ccccc2)c1", "note": "[5k, N-{2-[(3-Methoxyphenyl)-benzylamino]ethyl}acetamide]", "values": [{"measurement": "MT1 pKi", "setting": "[1]", "result": "7.30 ± 0.10"}, {"measurement": "MT2 pKi", "setting": "[2]", "result": "9.12 ± 0.05"}, {"measurement": "MT1 IAr ± SEM (relative intrinsic activity)", "setting": "[3]", "result": "0.92 ± 0.06"}, {"measurement": "MT2 IAr ± SEM (relative intrinsic activity)", "setting": "[4]", "result": "0.31 ± 0.02"}]}, {"compound": "COc1cccc(NCCNC(C)=O)c1", "note": "[5l, N-[2{(3-Methoxyphenyl)-amino]ethyl}acetamide]", "values": [{"measurement": "MT1 pKi", "setting": "[1]", "result": "8.28 ± 0.01"}, {"measurement": "Ki", "setting": "[2]; read-out: MT2 pKi (converted)", "result": 7.59, "unit": "nM"}, {"measurement": "MT1 IAr ± SEM (relative intrinsic activity)", "setting": "[3]", "result": "0.84 ± 0.01"}, {"measurement": "MT2 IAr ± SEM (relative intrinsic activity)", "setting": "[4]", "result": "0.94 ± 0.03"}]}, {"compound": "COc1cccc(N(C)CCCNC(C)=O)c1", "note": "[5m, N-{3-[(3-Methoxyphenyl)-methylamino]propyl}acetamide]", "values": [{"measurement": "MT1 pKi", "setting": "[1]", "result": "9.08 ± 0.04"}, {"measurement": "MT2 pKi", "setting": "[2]", "result": "8.70 ± 0.26"}, {"measurement": "MT1 IAr ± SEM (relative intrinsic activity)", "setting": "[3]", "result": "0.87 ± 0.05"}, {"measurement": "MT2 IAr ± SEM (relative intrinsic activity)", "setting": "[4]", "result": "1.07 ± 0.06"}]}, {"compound": "COc1cccc(N(CCNC(=O)C2CCC2)c2ccccc2)c1", "note": "[5o, N-{2-[(3-Methoxyphenyl)-phenylamino]ethyl}cyclobutancarboxamide]", "values": [{"measurement": "Ki", "setting": "[1]; read-out: MT1 pKi (converted)", "result": 331, "unit": "nM"}, {"measurement": "MT2 pKi", "setting": "[2]", "result": "8.43 ± 0.40"}, {"measurement": "MT1 IAr ± SEM (relative intrinsic activity)", "setting": "[3]", "result": "0.22 ± 0.01"}, {"measurement": "MT2 IAr ± SEM (relative intrinsic activity)", "setting": "[4]", "result": "0.29 ± 0.01"}]}, {"compound": "COc1cccc(N(CCN(C)C(C)=O)c2ccccc2)c1", "note": "[compound 6]", "values": [{"measurement": "MT1 pKi", "setting": "[1]", "result": "5.89 ± 0.07"}, {"measurement": "MT2 pKi", "setting": "[2]", "result": "7.28 ± 0.06"}, {"measurement": "MT1 Activity", "setting": "[3]", "result": "ANT"}, {"measurement": "MT1 IAr ± SEM (relative intrinsic activity)", "setting": "[3]", "result": "−0.01 ± 0.03"}, {"measurement": "MT2 Activity", "setting": "[4]", "result": "ANT"}, {"measurement": "MT2 IAr ± SEM (relative intrinsic activity)", "setting": "[4]", "result": "−0.01 ± 0.03"}]}]}
